The record followed here is PMC7586456 (ACS Pharmacology & Translational Science, 2020).

The subject of the test is SARS CoV-2 (USA_WA1/2020).
In the case of `C=CC(=O)Nc1cc(Nc2nccc(-c3cn(C)c4ccccc34)n2)c(OC)cc1N(C)CCN(C)C` [osimertinib], the “rescue of SARS-CoV-2 CPE (in words)” value is given as “protected against SARS-CoV-2 induced CPE, but to lesser degrees than cepharanthine”.

Take `CC1=C[C@]23C(=O)[C@@H](C=C(CO)[C@@H](O)[C@]2(O)[C@H]1O)[C@H]1[C@@H](C[C@H]3C)C1(C)C` [ingenol]: the “rescue of SARS-CoV-2 CPE (in words)” value is on record as “protected against SARS-CoV-2 induced CPE, but to lesser degrees than cepharanthine”.

In the case of `CC(CN(C)C)CN1c2ccccc2CCc2ccccc21` (stereo not shown) [trimipramine], the “rescue of SARS-CoV-2 CPE (in words)” value is “protected against SARS-CoV-2 induced CPE, but to lesser degrees than cepharanthine”.

Take `CCN1CCN(Cc2ccc(Nc3ncc(F)c(-c4cc(F)c5nc(C)n(C(C)C)c5c4)n3)nc2)CC1` [abemaciclib]: the “rescue of SARS-CoV-2 CPE (in words)” value was “protected against SARS-CoV-2 induced CPE, but to lesser degrees than cepharanthine”.
